The source made the active and inactive calls. The calls are words filed in the database; no cut-off is given here.
Columns and labels:
HT-29 [1] = experiment: Hypoxic cytotoxicity ratio IC50 for human HT-29 cells under aerobic condition to IC50 for human HT-29 cells under hypoxic condition; type: functional
SK-OV-3 [2] = experiment: Hypoxic cytotoxicity ratio IC50 for human SKOV3 cells under aerobic condition to IC50 for human HT-29 cells under hypoxic condition; type: functional
HT-29 [3] = experiment: Cytotoxicity against human HT-29 cells under aerobic condition after 5 days by SRB assay; type: functional, cell-based; conditions: HT-29, 120 h
SK-OV-3 [4] = experiment: Cytotoxicity against human SKOV3 cells under aerobic condition after 5 days by SRB assay; type: functional, cell-based; conditions: SK-OV-3, 120 h
SK-OV-3 [5] = experiment: Cytotoxicity against human SKOV3 cells under hypoxic condition after 5 days by SRB assay; type: functional, cell-based; conditions: SK-OV-3, 120 h
HT-29 [6] = experiment: Cytotoxicity against human HT-29 cells under hypoxic condition after 5 days by SRB assay; type: functional, cell-based; conditions: HT-29, 120 h
HT-29 [7] = experiment: Antitumor activity against human HT-29 cells xenografted in CD1 mouse after 18 hrs; type: functional, cell-based
[8] = Plasma concentration in CD1 mouse at 23.7 umol/kg, iv after 15 mins; type: ADME, organism-based
[9] = AUC (0 to 180 mins) in CD1 mouse at 23.7 umol/kg, iv; type: ADME, organism-based; design: time < 3 hr, dose 23.7 umol/kg, route intravenous; conditions: plasma
[10] = Toxicity against human HT-29 xenografted ip dosed CD1 mouse assessed as maximum tolerated dose; type: organism-based; conditions: in vivo, read-out: Activity

Compound	Ratio IC50 (HT-29 [1])	Ratio IC50 (SK-OV-3 [2])	IC50 (HT-29 [3])	IC50 (SK-OV-3 [4])	IC50 (SK-OV-3 [5])	IC50 (HT-29 [6])	Activity (HT-29 [7])	concentration at […] [8]	AUC(0-t) at 3 h [9]	MTD [10]
COc1cc2cc(C(=O)N3CC(CCl)c4c3cc([N+](=O)[O-])c3ccc(C(=O)NCCN(C)C)cc43)[nH]c2c(OC)c1OC (stereo not given)	2.4	16	1300 nM	2500 nM	180 nM	540 nM				
CN(C)CCOc1ccc2[nH]c(C(=O)N3CC(CCl)c4c3cc([N+](=O)[O-])c3cc(N)ccc43)cc2c1 (stereo not given)	2.4	2	1800 nM	2500 nM	1300 nM	760 nM				
CNS(=O)(=O)c1ccc2c3c(cc([N+](=O)[O-])c2c1)N(C(=O)c1cc2cc(OCCN(C)C)ccc2[nH]1)CC3CCl (stereo not given)	24	21	2700 nM	2600 nM	120 nM	130 nM				
CN(C)CCOc1ccc2[nH]c(C(=O)N3CC(CCl)c4c3cc([N+](=O)[O-])c3cc(S(=O)(=O)NO)ccc43)cc2c1 (stereo not given)	160	55	24000 nM	24000 nM	450 nM	150 nM				
CN(C)CCOc1ccc2[nH]c(C(=O)N3CC(CCl)c4c3cc([N+](=O)[O-])c3cc(S(=O)(=O)N(C)C)ccc43)cc2c1 (stereo not given)	3.6	2.4	1100 nM	500 nM	210 nM	370 nM				
CN(C)CCOc1ccc2[nH]c(C(=O)N3CC(CCl)c4c3cc([N+](=O)[O-])c3cc(S(=O)(=O)NN)ccc43)cc2c1 (stereo not given)	220	160	31000 nM	33000 nM	210 nM	160 nM				
COc1cc2cc(C(=O)N3CC(CCl)c4c3cc([N+](=O)[O-])c3cc(C(=O)NCCN(C)C)ccc43)[nH]c2c(OC)c1OC (stereo not given)	5.9	24	1500 nM	2000 nM	140 nM	300 nM				
CN(C)CCOc1ccc2[nH]c(C(=O)N3CC(CCl)c4c3cc([N+](=O)[O-])c3cc(S(N)(=O)=O)ccc43)cc2c1 (stereo not given)			4600 nM	6900 nM	28 nM	18 nM				
CN(C)CCNS(=O)(=O)c1ccc2c3c(cc([N+](=O)[O-])c2c1)N(C(=O)c1cc2cc(OCCN(C)C)ccc2[nH]1)CC3CCl (stereo not given)	110	130	730 nM	830 nM	6.6 nM	9 nM	inactive	< 10 nM	< 0.03 µM·h	23.7 µmol/kg
CNS(=O)(=O)c1ccc2c3c(cc(N)c2c1)N(C(=O)c1cc2cc(OCCN(C)C)ccc2[nH]1)CC3CCl (stereo not given)			24 nM	20 nM	11 nM	20 nM				
